Experimental data from patent US20250152605A1, “METHOD AND DRUG FOR TREATING NEURONAL CEROID LIPOFUSCINOSIS” (priority 2021, published 2025).
Counter-ions that a name gives are not always drawn.

Legend:
[1] = test system: BFP-LC3 stably expressing NRK cells; assay: Lysotracker staining of BFP-LC3 stably expressing NRK cells; type: cell-based, rat; details: treatment for 18 hours, compared with control cells
Experimental: Moreover, after treating BFP-LC3 stably expressing NRK cells with these seven small molecule compounds for 18 hours, staining with Lysotracker dye was performed.

[2] = test system: SCMAS protein; assay: SCMAS protein storage in neurons (immunofluorescence staining and western blot); type: cell-based, human; details: CLN3^Δex7/8 neurons
Experimental: Sample preparation: for adherent cultured cells, exemplified by cells cultured in a six-well cell plate, the cell medium was aspirated and the cells were washed once with dPBS. About 100 μL of RIPA lysate (50 mM Tris-HCl, pH 7.5, 150 mM NaCl, 0.25% Na-deoxycholate, 0.1% NP-40, 0.1% Triton X-100) containing protease inhibitors and phosphatase inhibitors was added to each well. The cell lysate was scraped off completely with a cell scraper and collected into 1.5 mL EP tubes. Lysis was continued for 30 minutes on ice. For animal tissue, the weight of the animal tissue was weighed, and RIPA lysate containing protease inhibitors and phosphatase inhibitors was added with five times the volume of the animal tissue. The tissue was grinded on ice with a tissue grinder until there is no obvious tissue mass, collected into 1.5 mL EP tubes, and placed on ice for further lysis for 30 min. […]

[3] = test system: CLN3^Δex7/8 human neurons; assay: Lysotracker staining of CLN3^Δex7/8 human neurons, flow cytometry; type: cell-based
Experimental: In analyzing the mean fluorescence intensity of neural stem cells and neuronal staining or single cell establishment of NRK cells, flow cytometry was used: the cell medium was aspirated off, after wash with dPBS once, the digestive enzyme corresponding to the cell type was added to digest into single cells; the supernatant was removed by centrifugation, and the cells were resuspended with 1 mL of fresh medium; the cell suspension with filtered through 40 μm filter membrane and the single cell filtrate was collected; the single cell filtrate was transferred to a flow tube and analyzed or sorted using BD FACS Aria III; in the analysis, the fluorescence intensity of 1×10^4 cells for each sample was analyzed to obtain the mean fluorescence intensity (MFI); for sorting, cells were received in 96 well plates with medium, one cell per well to establish a cell line.
Studies above have shown that CLN3^Δex7/8 human neurons feature lysosomal acidity dysregulation. To investigate the effect of Compound G on lysosomal acidity in CLN3^Δex7/8 neurons, Lysotracker dye was used for staining and flow cytometry was used for analyzing the fluorescence intensity of Lysotracker dye in cells.

[4] = test system: NRK cells; assay: Lysotracker staining of NRK cells, flow cytometry; type: cell-based, rat
From the text: The impact of increased p62 protein levels on the cellular lysosomal functions was detected: GFP-p62 proteins and GFP proteins of the control group were overexpressed in NRK cells, and Lysotracker dye was used to detect the acidity of lysosomes in GFP-positive cells.

## CO/C1=C\C(C)=C\[C@@H](C)[C@@H](O)[C@@H](C)C/C(C)=C/C=C/[C@H](OC)[C@@H]([C@@H](C)[C@@H](O)[C@H](C)[C@@]2(O)C[C@@H](O)[C@H](C)[C@@H](C(C)C)O2)OC1=O [Baf-A1, bafilomycin A1]
[1]
  intracellular Lysotracker staining (lysosomal acidity): significant decrease in lysosomal acidity

## COC(=O)/C=C/C(=O)OC [DMF, dimethyl fumarate, reference compound]
[2]
  abnormal storage of SCMAS protein: significantly reduced
[3]
  Lysotracker fluorescence intensity in CLN3^Δex7/8 human neurons: significantly increased
[4]
  intracellular lysosomal acidity (Lysotracker): significantly increase the intracellular lysosomal acidity
